Experimental data as given in ChEMBL document CHEMBL5463727, “Data for DCP probe SGK3-PROTAC1” (2023).

Tests used:
[1] = target: Serine/threonine-protein kinase Sgk3 (Homo sapiens) (UniProt Q96BR1); experiment: SGK3 degradation assay at 100 nM (48 h incubation, no effect on RPS6KB1, SGK1 and SGK2); assay type: functional; design: compound concentration 100 nM
[2] = target: Mitogen-activated protein kinase kinase kinase 5 (Homo sapiens) (UniProt Q99683); experiment: % Activity remaining of ASK1 in the Dundee kinase panel at 1.0 µM; details: Compound concentration 1.0 uM
[3] = target: Aurora kinase A (Homo sapiens) (UniProt O14965); experiment: % Activity remaining of Aurora A in the Dundee kinase panel at 1.0 µM; details: Compound concentration 1.0 uM
[4] = target: Serine/threonine-protein kinase BRSK2 (Homo sapiens) (UniProt Q8IWQ3); experiment: % Activity remaining of BRSK2 in the Dundee kinase panel at 1.0 µM; details: Compound concentration 1.0 uM
[5] = target: Calcium/calmodulin-dependent protein kinase type 1 (Homo sapiens) (UniProt Q14012); experiment: % Activity remaining of CAMK1 in the Dundee kinase panel at 1.0 µM; details: Compound concentration 1.0 uM
[6] = target: Calcium/calmodulin-dependent protein kinase kinase 2 (Homo sapiens) (UniProt Q96RR4); experiment: % Activity remaining of CAMKK beta in the Dundee kinase panel at 1.0 µM; details: Compound concentration 1.0 uM
[7] = target: Cyclin-dependent kinase 2/cyclin A (Homo sapiens) (UniProt P24941+P20248+P78396); experiment: % Activity remaining of CDK2-Cyclin A in the Dundee kinase panel at 1.0 µM; assay type: protein-complex assay; details: Compound concentration 1.0 uM
[8] = target: Casein kinase II subunit alpha (Homo sapiens) (UniProt P68400); experiment: % Activity remaining of CK2 in the Dundee kinase panel at 1.0 µM; details: Compound concentration 1.0 uM
[9] = target: Dual specificity protein kinase CLK2 (Homo sapiens) (UniProt P49760); experiment: % Activity remaining of CLK2 in the Dundee kinase panel at 1.0 µM; details: Compound concentration 1.0 uM
[10] = target: Dual specificity tyrosine-phosphorylation-regulated kinase 1A (Homo sapiens) (UniProt Q13627); experiment: % Activity remaining of DYRK1A in the Dundee kinase panel at 1.0 µM; details: Compound concentration 1.0 uM
[11] = target: Eukaryotic elongation factor 2 kinase (Homo sapiens) (UniProt O00418); experiment: % Activity remaining of EF2K in the Dundee kinase panel at 1.0 µM; details: Compound concentration 1.0 uM
Chain of Eukaryotic elongation factor 2 kinase (Homo sapiens) (O00418 whole entry): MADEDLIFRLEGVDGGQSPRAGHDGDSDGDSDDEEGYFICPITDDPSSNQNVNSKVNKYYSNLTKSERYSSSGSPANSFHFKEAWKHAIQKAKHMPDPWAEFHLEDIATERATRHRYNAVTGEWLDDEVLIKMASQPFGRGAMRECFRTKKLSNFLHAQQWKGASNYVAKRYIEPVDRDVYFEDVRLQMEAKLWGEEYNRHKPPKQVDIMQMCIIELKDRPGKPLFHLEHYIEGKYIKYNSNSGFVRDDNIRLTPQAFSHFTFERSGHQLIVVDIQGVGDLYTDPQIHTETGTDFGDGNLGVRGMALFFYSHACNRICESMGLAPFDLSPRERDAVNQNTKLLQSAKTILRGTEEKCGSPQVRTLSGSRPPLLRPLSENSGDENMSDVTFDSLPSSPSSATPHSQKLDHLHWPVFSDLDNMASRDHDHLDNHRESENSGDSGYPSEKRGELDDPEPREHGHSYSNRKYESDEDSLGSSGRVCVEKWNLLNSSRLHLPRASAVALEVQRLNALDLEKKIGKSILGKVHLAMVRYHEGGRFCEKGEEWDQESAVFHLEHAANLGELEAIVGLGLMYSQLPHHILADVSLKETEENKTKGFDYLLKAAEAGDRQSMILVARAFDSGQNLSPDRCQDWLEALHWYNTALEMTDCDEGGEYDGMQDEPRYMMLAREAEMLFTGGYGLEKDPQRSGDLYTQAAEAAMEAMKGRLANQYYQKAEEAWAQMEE

[12] = target: Ephrin type-B receptor 3 (Homo sapiens) (UniProt P54753); experiment: % Activity remaining of EPH-B3 in the Dundee kinase panel at 1.0 µM; details: Compound concentration 1.0 uM
[13] = target: Mitogen-activated protein kinase 15 (Homo sapiens) (UniProt Q8TD08); experiment: % Activity remaining of ERK8 in the Dundee kinase panel at 1.0 µM; details: Compound concentration 1.0 uM
Chain of Mitogen-activated protein kinase 15 (Homo sapiens) (Q8TD08 whole entry): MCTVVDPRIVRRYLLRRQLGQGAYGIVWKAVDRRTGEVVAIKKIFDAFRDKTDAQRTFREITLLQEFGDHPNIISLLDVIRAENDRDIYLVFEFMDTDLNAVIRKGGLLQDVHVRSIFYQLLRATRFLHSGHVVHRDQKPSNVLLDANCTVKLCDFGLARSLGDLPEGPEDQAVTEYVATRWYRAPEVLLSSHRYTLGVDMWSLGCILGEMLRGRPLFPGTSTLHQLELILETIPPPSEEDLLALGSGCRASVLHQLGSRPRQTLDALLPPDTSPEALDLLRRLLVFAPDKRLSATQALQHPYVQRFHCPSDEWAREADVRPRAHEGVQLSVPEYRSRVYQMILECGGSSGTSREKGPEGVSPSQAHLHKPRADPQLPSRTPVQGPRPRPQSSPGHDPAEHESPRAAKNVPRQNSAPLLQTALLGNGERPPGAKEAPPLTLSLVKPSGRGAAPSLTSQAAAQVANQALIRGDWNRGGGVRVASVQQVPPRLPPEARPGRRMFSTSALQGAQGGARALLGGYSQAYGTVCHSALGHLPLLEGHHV

[14] = target: Homeodomain-interacting protein kinase 2 (Homo sapiens) (UniProt Q9H2X6); experiment: % Activity remaining of HIPK2 in the Dundee kinase panel at 1.0 µM; details: Compound concentration 1.0 uM
[15] = target: Mitogen-activated protein kinase 8 (Homo sapiens) (UniProt P45983); experiment: % Activity remaining of JNK1 in the Dundee kinase panel at 1.0 µM; details: Compound concentration 1.0 uM
[16] = target: Mitogen-activated protein kinase 10 (Homo sapiens) (UniProt P53779); experiment: % Activity remaining of JNK3 in the Dundee kinase panel at 1.0 µM; details: Compound concentration 1.0 uM
Chain of Mitogen-activated protein kinase 10 (Homo sapiens) (P53779 whole entry): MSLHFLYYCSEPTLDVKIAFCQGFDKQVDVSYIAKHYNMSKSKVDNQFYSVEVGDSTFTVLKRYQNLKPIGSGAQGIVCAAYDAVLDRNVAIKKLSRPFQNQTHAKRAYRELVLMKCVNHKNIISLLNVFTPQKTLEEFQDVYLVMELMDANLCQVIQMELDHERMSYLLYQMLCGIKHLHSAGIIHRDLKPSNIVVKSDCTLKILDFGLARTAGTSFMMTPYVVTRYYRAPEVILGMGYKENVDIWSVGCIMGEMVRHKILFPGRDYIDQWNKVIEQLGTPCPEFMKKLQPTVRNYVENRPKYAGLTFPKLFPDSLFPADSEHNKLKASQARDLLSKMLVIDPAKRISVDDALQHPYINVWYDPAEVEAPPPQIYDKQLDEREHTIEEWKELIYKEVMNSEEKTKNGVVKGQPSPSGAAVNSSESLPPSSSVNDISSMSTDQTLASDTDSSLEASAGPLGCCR

[17] = target: Serine/threonine-protein kinase STK11 (Homo sapiens) (UniProt Q15831); experiment: % Activity remaining of LKB1 in the Dundee kinase panel at 1.0 µM; details: Compound concentration 1.0 uM
[18] = target: Serine/threonine-protein kinase MARK2 (Homo sapiens) (UniProt Q7KZI7); experiment: % Activity remaining of MARK2 in the Dundee kinase panel at 1.0 µM; details: Compound concentration 1.0 uM
[19] = target: Mitogen-activated protein kinase kinase kinase 1 (Homo sapiens) (UniProt Q13233); experiment: % Activity remaining of MEKK1 in the Dundee kinase panel at 1.0 µM; details: Compound concentration 1.0 uM
Chain of Mitogen-activated protein kinase kinase kinase 1 (Homo sapiens) (Q13233 whole entry): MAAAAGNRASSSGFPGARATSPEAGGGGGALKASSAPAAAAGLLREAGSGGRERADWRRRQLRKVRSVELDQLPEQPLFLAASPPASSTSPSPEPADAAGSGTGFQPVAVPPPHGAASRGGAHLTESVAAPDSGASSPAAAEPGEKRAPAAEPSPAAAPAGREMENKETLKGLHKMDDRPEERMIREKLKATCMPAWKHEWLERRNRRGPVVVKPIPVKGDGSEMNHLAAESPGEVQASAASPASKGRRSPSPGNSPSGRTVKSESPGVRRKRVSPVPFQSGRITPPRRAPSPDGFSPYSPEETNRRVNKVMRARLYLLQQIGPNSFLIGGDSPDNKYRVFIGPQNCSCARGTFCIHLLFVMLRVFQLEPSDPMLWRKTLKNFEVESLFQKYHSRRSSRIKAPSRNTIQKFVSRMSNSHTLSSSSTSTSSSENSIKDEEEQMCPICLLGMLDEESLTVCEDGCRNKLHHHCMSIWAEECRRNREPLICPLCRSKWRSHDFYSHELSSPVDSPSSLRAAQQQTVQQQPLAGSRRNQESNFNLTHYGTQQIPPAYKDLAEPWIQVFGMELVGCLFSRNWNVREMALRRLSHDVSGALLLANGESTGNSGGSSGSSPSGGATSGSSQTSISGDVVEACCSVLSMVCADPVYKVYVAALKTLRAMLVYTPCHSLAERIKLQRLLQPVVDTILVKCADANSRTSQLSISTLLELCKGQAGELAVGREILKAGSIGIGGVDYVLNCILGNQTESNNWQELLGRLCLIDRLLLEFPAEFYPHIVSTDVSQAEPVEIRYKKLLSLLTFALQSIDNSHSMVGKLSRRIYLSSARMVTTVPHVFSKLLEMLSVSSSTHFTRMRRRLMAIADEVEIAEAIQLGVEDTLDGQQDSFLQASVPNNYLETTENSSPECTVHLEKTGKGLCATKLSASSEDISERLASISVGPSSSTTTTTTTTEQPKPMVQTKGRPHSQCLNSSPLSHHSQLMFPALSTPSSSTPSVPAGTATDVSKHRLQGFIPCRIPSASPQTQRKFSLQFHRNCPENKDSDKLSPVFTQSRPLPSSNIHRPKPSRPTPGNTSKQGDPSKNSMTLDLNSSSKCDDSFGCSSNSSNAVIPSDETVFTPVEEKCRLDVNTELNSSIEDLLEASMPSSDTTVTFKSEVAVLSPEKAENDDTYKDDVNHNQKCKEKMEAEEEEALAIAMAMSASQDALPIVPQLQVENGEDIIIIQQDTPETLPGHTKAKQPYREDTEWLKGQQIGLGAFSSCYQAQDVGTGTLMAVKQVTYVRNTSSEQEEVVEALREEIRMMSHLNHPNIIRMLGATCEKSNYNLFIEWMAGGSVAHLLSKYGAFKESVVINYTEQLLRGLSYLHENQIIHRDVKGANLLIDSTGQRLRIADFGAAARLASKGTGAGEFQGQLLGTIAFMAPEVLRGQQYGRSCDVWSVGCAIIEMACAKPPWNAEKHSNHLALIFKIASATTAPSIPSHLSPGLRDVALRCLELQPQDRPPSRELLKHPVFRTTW

[20] = target: Misshapen-like kinase 1 (Homo sapiens) (UniProt Q8N4C8); experiment: % Activity remaining of MINK1 in the Dundee kinase panel at 1.0 µM; details: Compound concentration 1.0 uM
[21] = target: Dual specificity mitogen-activated protein kinase kinase 2 (Homo sapiens) (UniProt P36507); experiment: % Activity remaining of MKK2 in the Dundee kinase panel at 1.0 µM; details: Compound concentration 1.0 uM
Chain of Dual specificity mitogen-activated protein kinase kinase 2 (Homo sapiens) (P36507 whole entry): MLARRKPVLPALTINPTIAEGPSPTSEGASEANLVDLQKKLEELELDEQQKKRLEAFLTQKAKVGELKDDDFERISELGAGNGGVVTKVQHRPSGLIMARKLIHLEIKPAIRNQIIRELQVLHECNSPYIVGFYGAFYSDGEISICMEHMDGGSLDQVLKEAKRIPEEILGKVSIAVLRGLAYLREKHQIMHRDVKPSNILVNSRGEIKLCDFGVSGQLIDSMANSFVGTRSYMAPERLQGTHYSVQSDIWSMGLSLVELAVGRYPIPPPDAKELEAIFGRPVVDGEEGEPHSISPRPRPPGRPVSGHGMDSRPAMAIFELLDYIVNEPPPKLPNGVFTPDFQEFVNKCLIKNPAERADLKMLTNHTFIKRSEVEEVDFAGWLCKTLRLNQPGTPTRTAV

[22] = target: Mitogen-activated protein kinase kinase kinase 11 (Homo sapiens) (UniProt Q16584); experiment: % Activity remaining of MLK3 in the Dundee kinase panel at 1.0 µM; details: Compound concentration 1.0 uM
[23] = target: Serine/threonine-protein kinase 24 (Homo sapiens) (UniProt Q9Y6E0); experiment: % Activity remaining of MST3 in the Dundee kinase panel at 1.0 µM; details: Compound concentration 1.0 uM
Chain of Serine/threonine-protein kinase 24 (Homo sapiens) (Q9Y6E0 whole entry, looked up): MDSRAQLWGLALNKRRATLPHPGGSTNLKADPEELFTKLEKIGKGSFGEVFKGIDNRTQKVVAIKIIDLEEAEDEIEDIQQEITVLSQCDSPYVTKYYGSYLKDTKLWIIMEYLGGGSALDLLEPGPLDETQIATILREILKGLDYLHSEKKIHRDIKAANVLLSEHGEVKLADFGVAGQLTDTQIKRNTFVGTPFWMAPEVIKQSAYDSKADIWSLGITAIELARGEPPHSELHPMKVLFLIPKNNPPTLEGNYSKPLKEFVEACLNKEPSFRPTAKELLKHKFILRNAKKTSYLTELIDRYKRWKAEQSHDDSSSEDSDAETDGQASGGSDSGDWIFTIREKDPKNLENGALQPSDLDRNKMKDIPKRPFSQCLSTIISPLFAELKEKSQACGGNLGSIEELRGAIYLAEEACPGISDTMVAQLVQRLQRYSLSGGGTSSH

[24] = target: Serine/threonine-protein kinase 26 (Homo sapiens) (UniProt Q9P289); experiment: % Activity remaining of MST4 in the Dundee kinase panel at 1.0 µM; details: Compound concentration 1.0 uM
[25] = target: Serine/threonine-protein kinase Nek6 (Homo sapiens) (UniProt Q9HC98); experiment: % Activity remaining of NEK6 in the Dundee kinase panel at 1.0 µM; details: Compound concentration 1.0 uM
[26] = target: Mitogen-activated protein kinase 14 (Homo sapiens) (UniProt Q16539); experiment: % Activity remaining of p38 alpha MAPK in the Dundee kinase panel at 1.0 µM; details: Compound concentration 1.0 uM
[27] = target: Mitogen-activated protein kinase 11 (Homo sapiens) (UniProt Q15759); experiment: % Activity remaining of p38 beta MAPK in the Dundee kinase panel at 1.0 µM; details: Compound concentration 1.0 uM
[28] = target: Serine/threonine-protein kinase PAK 4 (Homo sapiens) (UniProt O96013); experiment: % Activity remaining of PAK4 in the Dundee kinase panel at 1.0 µM; details: Compound concentration 1.0 uM
[29] = target: Protein kinase C alpha type (Homo sapiens) (UniProt P17252); experiment: % Activity remaining of PKC alpha in the Dundee kinase panel at 1.0 µM; details: Compound concentration 1.0 uM
[30] = target: Serine/threonine-protein kinase N2 (Homo sapiens) (UniProt Q16513); experiment: % Activity remaining of PRK2 in the Dundee kinase panel at 1.0 µM; details: Compound concentration 1.0 uM
Chain of Serine/threonine-protein kinase N2 (Homo sapiens) (Q16513 whole entry, looked up): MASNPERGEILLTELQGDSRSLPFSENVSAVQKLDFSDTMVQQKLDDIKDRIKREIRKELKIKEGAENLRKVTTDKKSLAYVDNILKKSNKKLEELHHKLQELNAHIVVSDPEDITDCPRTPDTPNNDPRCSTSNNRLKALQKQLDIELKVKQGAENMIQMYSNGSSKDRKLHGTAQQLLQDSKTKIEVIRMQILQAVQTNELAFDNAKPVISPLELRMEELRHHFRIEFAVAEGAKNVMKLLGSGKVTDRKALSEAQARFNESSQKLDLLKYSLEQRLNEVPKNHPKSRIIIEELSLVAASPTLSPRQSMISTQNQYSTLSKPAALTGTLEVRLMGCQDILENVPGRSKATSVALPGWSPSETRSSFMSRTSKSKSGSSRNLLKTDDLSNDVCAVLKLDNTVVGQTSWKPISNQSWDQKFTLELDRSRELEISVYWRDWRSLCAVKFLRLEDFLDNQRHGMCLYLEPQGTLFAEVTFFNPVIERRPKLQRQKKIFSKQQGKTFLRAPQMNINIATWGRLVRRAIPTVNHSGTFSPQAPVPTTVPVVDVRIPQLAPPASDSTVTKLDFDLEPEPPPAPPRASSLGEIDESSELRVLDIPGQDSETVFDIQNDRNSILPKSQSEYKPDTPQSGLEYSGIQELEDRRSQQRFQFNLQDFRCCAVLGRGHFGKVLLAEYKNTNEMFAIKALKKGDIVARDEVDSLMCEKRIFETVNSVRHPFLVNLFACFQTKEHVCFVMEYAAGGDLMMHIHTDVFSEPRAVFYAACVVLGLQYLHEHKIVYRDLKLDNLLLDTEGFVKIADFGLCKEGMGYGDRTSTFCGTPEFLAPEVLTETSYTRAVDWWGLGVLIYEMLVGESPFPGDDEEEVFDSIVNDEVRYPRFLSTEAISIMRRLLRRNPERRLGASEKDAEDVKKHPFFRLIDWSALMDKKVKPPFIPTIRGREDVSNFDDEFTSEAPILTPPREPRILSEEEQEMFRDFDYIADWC

[31] = target: Rho-associated protein kinase 2 (Homo sapiens) (UniProt O75116); experiment: % Activity remaining of ROCK 2 in the Dundee kinase panel at 1.0 µM; details: Compound concentration 1.0 uM
[32] = target: Ribosomal protein S6 kinase alpha-1 (Homo sapiens) (UniProt Q15418); experiment: % Activity remaining of RSK1 in the Dundee kinase panel at 1.0 µM; details: Compound concentration 1.0 uM
[33] = target: Ribosomal protein S6 kinase beta-1 (Homo sapiens, UniProt P23443); experiment: % Activity remaining of S6K1 in the Dundee kinase panel at 1.0 µM; details: for % Activity remaining: Compound concentration 1.0 uM
[34] = target: Serine/threonine-protein kinase SIK2 (Homo sapiens) (UniProt Q9H0K1); experiment: % Activity remaining of SIK2 in the Dundee kinase panel at 1.0 µM; details: Compound concentration 1.0 uM
[35] = target: Serine/threonine-protein kinase tousled-like 1 (Homo sapiens) (UniProt Q9UKI8); experiment: % Activity remaining of TLK1 in the Dundee kinase panel at 1.0 µM; details: Compound concentration 1.0 uM
[36] = target: High affinity nerve growth factor receptor (Homo sapiens) (UniProt P04629); experiment: % Activity remaining of TrkA in the Dundee kinase panel at 1.0 µM; details: Compound concentration 1.0 uM
[37] = target: Testis-specific serine/threonine-protein kinase 1 (Homo sapiens) (UniProt Q9BXA7); experiment: % Activity remaining of TSSK1 in the Dundee kinase panel at 1.0 µM; details: Compound concentration 1.0 uM
[38] = target: Vascular endothelial growth factor receptor 1 (Homo sapiens) (UniProt P17948); experiment: % Activity remaining of VEGFR1 in the Dundee kinase panel at 1.0 µM; details: Compound concentration 1.0 uM

| SMILES | Degradation [1] | % Activity remaining [2] | % Activity remaining [3] | % Activity remaining [4] | % Activity remaining [5] | % Activity remaining [6] | % Activity remaining [7] | % Activity remaining [8] | % Activity remaining [9] | % Activity remaining [10] | % Activity remaining [11] | % Activity remaining [12] | % Activity remaining [13] | % Activity remaining [14] | % Activity remaining [15] | % Activity remaining [16] | % Activity remaining [17] | % Activity remaining [18] | % Activity remaining [19] | % Activity remaining [20] | also measured |
| --- | --- | --- | --- | --- | --- | --- | --- | --- | --- | --- | --- | --- | --- | --- | --- | --- | --- | --- | --- | --- | --- |
| Cc1ccc(F)c(S(=O)(=O)Nc2ccc(-c3nc(OC[C@H]4CN(CCCCCCOCCOCCOCC(=O)N[C@H](C(=O)N5C[C@@H](O)C[C@H]5C(=O)NCc5ccc(-c6scnc6C)cc5)C(C)(C)C)CCO4)c4cn[nH]c4n3)cc2)c1 | 0% | 102% | 91.4% | 101% | 105% | 108% | 103% | 96.4% | 84.8% | 99% | 105% | 104% | 86.4% | 99.7% | 119% | 82.5% | 112% | 112% | 128% | 116% | % Activity remaining [21]: 124%; % Activity remaining [22]: 75.6%; % Activity remaining [23]: 113%; % Activity remaining [24]: 99%; % Activity remaining [25]: 111%; % Activity remaining [26]: 109%; % Activity remaining [27]: 112%; % Activity remaining [28]: 113%; % Activity remaining [29]: 118%; % Activity remaining [30]: 101%; % Activity remaining [31]: 119%; % Activity remaining [32]: 90.2%; IC50 [33]: 1700 nM; % Activity remaining [33]: 20.2%; % Activity remaining [34]: 93.8%; % Activity remaining [35]: 109%; % Activity remaining [36]: 102%; % Activity remaining [37]: 113%; % Activity remaining [38]: 103% |
| Cc1ccc(F)c(S(=O)(=O)Nc2ccc(-c3nc(OC[C@H]4CN(CCCCCCOCCOCCOCC(=O)N[C@H](C(=O)N5C[C@H](O)C[C@H]5C(=O)NCc5ccc(-c6scnc6C)cc5)C(C)(C)C)CCO4)c4cn[nH]c4n3)cc2)c1 | 65% | 113% | 90.3% | 97.2% | 86.3% | 98.9% | 101% | 90.2% | 104% | 105% | 97.5% | 91.6% | 94.2% | 109% | 117% | 92.1% | 105% | 102% | 124% | 115% | % Activity remaining [21]: 114%; % Activity remaining [22]: 70.5%; % Activity remaining [23]: 102%; % Activity remaining [24]: 106%; % Activity remaining [25]: 106%; % Activity remaining [26]: 125%; % Activity remaining [27]: 107%; % Activity remaining [28]: 81.1%; % Activity remaining [29]: 121%; % Activity remaining [30]: 105%; % Activity remaining [31]: 113%; % Activity remaining [32]: 83.2%; IC50 [33]: 1800 nM; % Activity remaining [33]: 19%; % Activity remaining [34]: 94.6%; % Activity remaining [35]: 102%; % Activity remaining [36]: 112%; % Activity remaining [37]: 115%; % Activity remaining [38]: 120% |
